In patent US20240192233A1, “DRUG DISCOVERY ASSAY TO SCREEN FOR COMPOUNDS” (FUNDACIÓ INSTITUT DE RECERCA BIOMÈDICA (IRB BARCELONA), priority 2021, published 2024):

Columns and labels:
Format in all cases: biochemical
AR-NTD [1] = target: T1, AR-NTD (Homo sapiens, UniProt P10275); experiment: Screening with the condensation (TSA) assay, percentage of shift versus reference shift; conditions: screening concentration 100 μM; negative reference DMSO; mean of 3 measurements
T1 construct: a domain of the androgen receptor localised at its N-terminus, amino acids 1-558
T1 sequence (P10275 1-558): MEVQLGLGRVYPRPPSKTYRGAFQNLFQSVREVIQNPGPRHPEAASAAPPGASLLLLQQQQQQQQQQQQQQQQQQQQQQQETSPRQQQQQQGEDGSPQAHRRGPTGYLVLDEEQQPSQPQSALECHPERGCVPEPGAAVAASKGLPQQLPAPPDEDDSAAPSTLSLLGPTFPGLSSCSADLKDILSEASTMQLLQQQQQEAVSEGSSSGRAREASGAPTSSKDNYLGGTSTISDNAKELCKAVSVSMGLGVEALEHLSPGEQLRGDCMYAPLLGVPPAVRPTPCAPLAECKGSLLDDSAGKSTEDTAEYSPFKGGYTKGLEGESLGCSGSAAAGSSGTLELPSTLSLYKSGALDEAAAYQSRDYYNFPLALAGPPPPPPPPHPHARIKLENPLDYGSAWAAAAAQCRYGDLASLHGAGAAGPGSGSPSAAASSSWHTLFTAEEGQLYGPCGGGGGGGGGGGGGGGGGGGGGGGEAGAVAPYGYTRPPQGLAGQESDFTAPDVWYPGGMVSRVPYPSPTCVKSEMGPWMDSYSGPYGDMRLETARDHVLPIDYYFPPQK
Method: FIG. 7. […] First two bars show data points corresponding to the controls that are used to calculate the activity: Negative reference (DMSO), Positive reference (EPI-001 at 200 μM). […] Mean values of 3 measurements and the standard deviation are plotted.
In this sense, in FIG. 7 the first two bars show data points corresponding to the controls that are used to calculate the activity: • Negative reference—DMSO • Positive reference—EPI-001 at 200 μM
Briefly, in order to quantitatively rank the tested compounds with regards to their efficacy to enhance the AR-NTD condensation in vitro and compare it to that of EPI-001, we measured the cloud point temperature (Tc) of each of the samples at constant protein concentration (100 μM). Then, we calculated the percentage of shift caused by the compound in comparison to the reference shift, the one caused by 200 μM EPI-001. Next, we plotted the normalised shift versus the compound concentration.

AR-NTD [2] = target: T1, AR-NTD; experiment: Screening with the condensation assay, amplitude of the absorbance as parameter; conditions: screening concentration 100 μM; references DMSO and EPI-001 at 200 μM; mean of 3 measurements
Method: FIG. 9. Results of screening for molecules using the condensation assay with amplitude of the absorbance as a parameter determining the activity of tested molecules. First two bars show data points corresponding to the controls that are used to calculate the activity: negative reference (DMSO), positive reference (EPI-001 at 200 μM). The rest of the bars corresponds to the activity of three screened molecules at a screening concentration 100 μM. […] Mean values of 3 measurements and the standard deviation are plotted.
Please note that, with reference to this aspect of the invention, the inventors have shown that this parameter could also be used to select hits (see FIG. 9).

AR-NTD [3] = target: T1, AR-NTD; experiment: Temperature-dependent turbidity shift assay (TSA), critical temperature Tc; conditions: 500 mM NaCl
Method: FIG. 6. a) Apparent absorbance (at λ=350 nm) measurement at increasing temperatures of 30 μM ARNTD in 20 mM Hepes 7.4, 500 mM NaCl, 2 mM TCEP buffer in the absence (grey) and presence of 5 eq of EPI-001 (red) or BADGE (green). Dashed lines indicate condensation onset and calculated Tc values are depicted in the insert. b) Tc obtained using the TSA assay of AR-NTD at different concentrations in 20 mM Hepes 7.4, 500 mM NaCl, 2 mM TCEP buffer in the absence (grey) and presence of 5 eq of EPI-001 (red) or BADGE (green). Mean values of 3 independent measurements and the standard deviation are plotted.
To quantify the effects of EPI-001 on the AR-NTD phase separation, we implemented a temperature-dependent turbidity shift assay (TSA). In this assay we measure the sample turbidity as a reporter of condensation and determine the temperature at which a given sample demixes, the Critical Temperature. When droplets are formed, they scatter light and cause an abrupt increase in turbidity. Therefore, values above 0 absorbance units (AU) in the TSA assay indicate condensation. We measure turbidity as the apparent absorbance at a wavelength in which the absorption of the other components in the sample is minimal, in our case 350 nm. Addition of 5 equivalents (eq) of EPI-001 to a 30 μM AR-NTD and 500 mM NaCl sample lowered the Tc of the AR-NTD by 10° C. (FIG. 5a). […]

| SMILES | hit classification by activity (percentage of Tc shift relative to 200 μM EPI-001), cut-off 25% (AR-NTD [1]) | hit classification by activity based on amplitude of the absorbance, cut-off 25% (AR-NTD [2]) | enhancement of AR-NTD condensation at all protein concentrations tested (left arm of phase diagram) (AR-NTD [3]; 5 eq of compound, various AR-NTD concentrations) | lowering of the Tc of the AR-NTD (AR-NTD [3]; 5 equivalents of compound, 30 μM AR-NTD, absorbance at 350 nm) [°C] |
| --- | --- | --- | --- | --- |
| CC(C)(c1ccc(OC[C@H](O)CNS(C)(=O)=O)cc1)c1cc(Cl)c(OC[C@H](O)CCl)c(Cl)c1 [EPI-7170] | hits | hits |  |  |
| CC(C)(c1ccc(OCC2CO2)cc1)c1ccc(OCC2CO2)cc1 (stereo not drawn) [BADGE] | non-hit | inactive | not | 3 |
